Measurements published in patent publication US20230265098A1, “ALKYNE QUINAZOLINE DERIVATIVES AS INHIBITORS OF ERBB2” (EnLiven Therapeutics, Inc., priority 2020, published 2023).
pIC50: −log10 of the molar value.

How the values were obtained:
[1] = target: T1, Ba/F3 ERBB2-P780_Y781insGSP (Homo sapiens, UniProt P04626, DUP778-780, cells depend on it); assay: Cell viability assay (CellTiter Glo); type: cell-based, mouse; conditions: 72 hours; 3000 cells per well, 96-well plates; read-out: Cell viability IC50, nM, Ba/F3 ERBB2-P780_Y781insGSP
T1 construct: Ba/F3 cell lines were engineered to express human ERBB2 or EGFR kinases, rendering the cells IL-3 independent
Experimental: (§1) Cells were treated with compounds, and cell viability was measured as a metric of kinase inhibition.
(§2) The Ba/F3 cell line is IL-3-dependent mouse cell line derived from the C3H mouse strain. Ba/F3 cell lines were engineered to express human ERBB2 or EGFR kinases, rendering the cells IL-3 independent. The lines were generated via retroviral transduction utilizing a Moloney murine leukemia virus (MMLV) promoter, and constructs are stably integrated into the cell genome.
(§3) Similarly, Ba/F3 cell lines engineered to express EGFR, ERBB2, or ERBB2 mutants were grown, harvested, counted and seeded at 3000 cells per well in 96-well plates for the data sets shown in Tables B3-B4, and seeded at 300 cells per well in 384-well plates for the data set shown in Table B5. A subset of wells contained media only (low control, “LC”).
(§4) Table B2 provides the growth media and number of cells seeded per well for the each cell line.
(§5) Compounds were dissolved in DMSO and serially diluted. Serially-diluted compound or a DMSO only control (high control, “HC”) was added to the plated cells in each well. […] The final proportion of DMSO never exceeded 0.1%.
Plates were placed in a 37° C., 5% CO2 incubator for 72 hours. Plates were then removed from the incubator and equilibrated for 15 minutes at room temperature. 40 IA of CellTiter Glo reagent (Promega) was added to measure the relative level of metabolically active cells by quantifying intracellular ATP concentrations. Plates were incubated for 30 minutes at room temperature, and luminescence was measured. […] Graphical curves were fitted using a nonlinear regression model with a sigmoidal dose response.

[2] = target: T2, phosphorylated ERBB2 (pERBB2) (Homo sapiens, UniProt P04626); assay: Detection of phosphorylated ERBB2 (pERBB2) by ELISA in BT-474 cells; type: cell-based; conditions: four hours incubation with compound, OD 450 nm
T2 construct: endogenous in cells; host or cells: BT-474
Experimental: BT-474 cells were seeded into a 96-well at 2.0*10^4 cells/100 μl/well.
Compounds were dissolved and serially diluted in DMSO. The compounds were then were added, mixed, and incubated for four hours at 37° C., 5% CO2. Compounds were added using four-fold dilutions at final concentrations ranging from 10 μM to 0.01 nM.
Following the four hour incubation with compounds, cell lysates were prepared. Plates were centrifuged for 5 min at 3000 RPM, and supernatant was removed from each well. Cells were washed 3 times by resuspension in 150 μl PBS, followed by centrifugation and removal of the supernatant, as above. […] Cells were incubated with lysis buffer for 1 hour at 4° C., and then stored at −80° C.
Enzyme-linked immunosorbent assays (ELISA) were performed to measure phosphorylated ERBB2 levels. […] The next day, plates were washed with PBS+0.05% Tween20 (PBST). 150 μl of 5% BSA blocking solution was added for 1 hour at room temperature, with shaking. Plates were washed with PBST. Cell lysates were thawed and 100 μl of lysate was added to the ELISA plate. The plates were incubated for 2 hours at room temperature, with shaking. […] Plates were incubated for 1 hour at room temperature, with shaking. Plates were then washed with PBST, and 100 μl TMB substrate solution (R&D Systems, cat #DY999) was added. Plate were incubated in the dark for 20 minutes at room temperature. 50 μl of Stop solution (R&D Systems, cat #DY994) (50 μl) was added to each well and mixed.
Optical density at 450 nm was read on an EnSpire plate reader (Perkin Elmer). The remaining kinase activity by calculated using the following formula: % Relative activity=100×(A450sample−A450LC)/(A450HC−A450LC). The low and high control values (“LC” and “HC”) were generated from lysate from wells without cells or with cells treated with 0.1% DMSO, respectively.

[3] = target: T3, Ba/F3 ERBB2 A775_G776insYVMA (Homo sapiens, UniProt P04626, DUP772-775, cells depend on it); assay: Cell viability assay (CellTiter Glo); type: cell-based, mouse; conditions: 72 hours; 3000 cells per well, 96-well plates (Tables B3-B4); read-out: Cell viability IC50, nM, Ba/F3 ERBB2 A775_G776insYVMA
T3 construct: Ba/F3 cell lines were engineered to express human ERBB2 or EGFR kinases, rendering the cells IL-3 independent
Experimental: as §1, §2, §3, §4, §5
(§6) Plates were placed in a 37° C., 5% CO2 incubator for 72 hours. Plates were then removed from the incubator and equilibrated for 15 minutes at room temperature. 40 IA of CellTiter Glo reagent (Promega) was added to measure the relative level of metabolically active cells by quantifying intracellular ATP concentrations. Plates were incubated for 30 minutes at room temperature, and luminescence was measured. Percent viability was normalized to a vehicle control only using the following formula: % viability=100×(LumSample−LumLC) (LumHC−LumLC). Graphical curves were fitted using a nonlinear regression model with a sigmoidal dose response.

[4] = target: T4, Ba/F3 ERBB2 wt (Homo sapiens, UniProt P04626); assay: Cell viability assay (CellTiter Glo); type: cell-based, mouse; conditions: 72 hours; 3000 cells per well, 96-well plates; read-out: Cell viability IC50, nM, Ba/F3 ERBB2 wt
T4 construct: Ba/F3 cell lines were engineered to express human ERBB2 or EGFR kinases, rendering the cells IL-3 independent
Experimental: as §1, §2, §3, §4, §5, §6

[5] = target: T5, Ba/F3 ERBB2-G776VC (Homo sapiens, UniProt P04626, DELINS776-776VC, cells depend on it); assay: Cell viability assay (CellTiter Glo); type: cell-based, mouse; conditions: 72 hours; 3000 cells per well, 96-well plates; read-out: Cell viability IC50, nM, Ba/F3 ERBB2-G776VC
T5 construct: Ba/F3 cell lines were engineered to express human ERBB2 or EGFR kinases, rendering the cells IL-3 independent
Experimental: as §1, §2, §3, §4, §5, §6

[6] = tested on: A431 cells; assay: Cell viability assay (CellTiter Glo); type: cell-based; conditions: Homo sapiens, A-431; 72 hours; 1500 cells per well, 384-well; DMEM + 10% FBS
Experimental: as §1, §2, §3, §4, §5, §6

[7] = tested on: BT-474 cells; assay: Cell viability assay (CellTiter Glo); type: cell-based; conditions: Homo sapiens, 72 hours, 2000 cells per well, 384-well, DMEM + 10% FBS
Experimental: as §1, §2, §3, §4, §5, §6

[8] = tested on: MDA-MB-175VII cells; assay: Cell viability assay (CellTiter Glo); type: cell-based; conditions: Homo sapiens, 72 hours, 2000 cells per well, 384-well, RPMI + 10% FBS
Experimental: as §1, §2, §3, §4, §5, §6

[9] = target: T6, Ba/F3 ERBB2-T798M (Homo sapiens, UniProt P04626, T798M, cells depend on it); assay: Cell viability assay (CellTiter Glo); type: cell-based, mouse; conditions: 72 hours; 3000 cells per well, 96-well plates; read-out: Cell viability IC50, nM, Ba/F3 ERBB2-T798M
T6 construct: Ba/F3 cell lines were engineered to express human ERBB2 or EGFR kinases, rendering the cells IL-3 independent
Experimental: as §1, §2, §3, §4, §5, §6

[10] = target: T7, Ba/F3 ERBB2-V777_G778insGC (Homo sapiens, UniProt P04626, INS778CG, cells depend on it); assay: Cell viability assay (CellTiter Glo); type: cell-based, mouse; conditions: 72 hours; 3000 cells per well, 96-well plates; read-out: Cell viability IC50, nM, Ba/F3 ERBB2-V777_G778insGC
T7 construct: Ba/F3 cell lines were engineered to express human ERBB2 or EGFR kinases, rendering the cells IL-3 independent
Experimental: as §1, §2, §3, §4, §5, §6

[11] = target: T8, Ba/F3 ERBB2-L755S (Homo sapiens, UniProt P04626, L755S, cells depend on it); assay: Cell viability assay (CellTiter Glo); type: cell-based, mouse; conditions: 72 hours; 3000 cells per well, 96-well plates; read-out: Cell viability IC50, nM, Ba/F3 ERBB2-L755S
T8 construct: Ba/F3 cell lines were engineered to express human ERBB2 or EGFR kinases, rendering the cells IL-3 independent
Experimental: as §1, §2, §3, §4, §5, §6

[12] = target: T9, Ba/F3 ERBB2-V777L (Homo sapiens, UniProt P04626, V777L, cells depend on it); assay: Cell viability assay (CellTiter Glo); type: cell-based, mouse; conditions: 72 hours; 3000 cells per well, 96-well plates; read-out: Cell viability IC50, nM, Ba/F3 ERBB2-V777L
T9 construct: Ba/F3 cell lines were engineered to express human ERBB2 or EGFR kinases, rendering the cells IL-3 independent
Experimental: as §1, §2, §3, §4, §5, §6

[13] = target: T10, Ba/F3 ERBB2-L869R (Homo sapiens, UniProt P04626, L869R, cells depend on it); assay: Cell viability assay (CellTiter Glo); type: cell-based, mouse; conditions: 72 hours; 3000 cells per well, 96-well plates; read-out: Cell viability IC50, nM, Ba/F3 ERBB2-L869R
T10 construct: Ba/F3 cell lines were engineered to express human ERBB2 or EGFR kinases, rendering the cells IL-3 independent
Experimental: as §1, §2, §3, §4, §5, §6

T3 sequence (P04626 with tags, fused parts or gaps DUP772-775): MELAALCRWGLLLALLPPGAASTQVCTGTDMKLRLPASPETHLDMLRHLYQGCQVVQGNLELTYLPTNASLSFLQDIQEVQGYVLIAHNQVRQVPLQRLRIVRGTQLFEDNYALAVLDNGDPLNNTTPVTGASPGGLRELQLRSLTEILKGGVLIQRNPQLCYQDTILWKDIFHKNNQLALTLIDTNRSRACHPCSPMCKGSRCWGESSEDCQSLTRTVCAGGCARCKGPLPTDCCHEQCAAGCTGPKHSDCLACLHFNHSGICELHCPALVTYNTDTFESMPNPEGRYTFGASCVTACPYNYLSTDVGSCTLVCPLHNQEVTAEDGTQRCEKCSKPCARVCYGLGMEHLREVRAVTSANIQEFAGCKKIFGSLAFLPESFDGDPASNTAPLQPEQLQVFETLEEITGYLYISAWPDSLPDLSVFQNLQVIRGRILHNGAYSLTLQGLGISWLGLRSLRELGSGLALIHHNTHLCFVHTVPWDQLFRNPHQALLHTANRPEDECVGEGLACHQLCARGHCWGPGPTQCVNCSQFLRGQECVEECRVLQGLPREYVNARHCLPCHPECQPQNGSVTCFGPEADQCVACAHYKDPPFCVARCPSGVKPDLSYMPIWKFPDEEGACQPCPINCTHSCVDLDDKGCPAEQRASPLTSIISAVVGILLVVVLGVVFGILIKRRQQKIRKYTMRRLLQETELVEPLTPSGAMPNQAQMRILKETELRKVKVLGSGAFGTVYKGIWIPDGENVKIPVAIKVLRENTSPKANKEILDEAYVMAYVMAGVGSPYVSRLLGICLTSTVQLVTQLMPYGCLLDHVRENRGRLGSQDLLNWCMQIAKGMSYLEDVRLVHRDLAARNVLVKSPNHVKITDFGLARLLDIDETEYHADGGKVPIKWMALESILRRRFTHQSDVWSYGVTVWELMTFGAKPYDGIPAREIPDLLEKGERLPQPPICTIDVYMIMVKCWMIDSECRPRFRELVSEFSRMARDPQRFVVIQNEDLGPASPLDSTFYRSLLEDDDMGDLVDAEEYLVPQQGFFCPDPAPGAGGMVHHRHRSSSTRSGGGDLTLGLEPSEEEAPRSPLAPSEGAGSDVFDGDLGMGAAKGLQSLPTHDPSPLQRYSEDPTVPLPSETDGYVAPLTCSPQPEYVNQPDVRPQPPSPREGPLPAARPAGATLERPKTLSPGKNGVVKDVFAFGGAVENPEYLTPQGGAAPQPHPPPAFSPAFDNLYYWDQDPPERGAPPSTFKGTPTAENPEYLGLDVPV
T4 sequence (P04626 whole entry, change not shown): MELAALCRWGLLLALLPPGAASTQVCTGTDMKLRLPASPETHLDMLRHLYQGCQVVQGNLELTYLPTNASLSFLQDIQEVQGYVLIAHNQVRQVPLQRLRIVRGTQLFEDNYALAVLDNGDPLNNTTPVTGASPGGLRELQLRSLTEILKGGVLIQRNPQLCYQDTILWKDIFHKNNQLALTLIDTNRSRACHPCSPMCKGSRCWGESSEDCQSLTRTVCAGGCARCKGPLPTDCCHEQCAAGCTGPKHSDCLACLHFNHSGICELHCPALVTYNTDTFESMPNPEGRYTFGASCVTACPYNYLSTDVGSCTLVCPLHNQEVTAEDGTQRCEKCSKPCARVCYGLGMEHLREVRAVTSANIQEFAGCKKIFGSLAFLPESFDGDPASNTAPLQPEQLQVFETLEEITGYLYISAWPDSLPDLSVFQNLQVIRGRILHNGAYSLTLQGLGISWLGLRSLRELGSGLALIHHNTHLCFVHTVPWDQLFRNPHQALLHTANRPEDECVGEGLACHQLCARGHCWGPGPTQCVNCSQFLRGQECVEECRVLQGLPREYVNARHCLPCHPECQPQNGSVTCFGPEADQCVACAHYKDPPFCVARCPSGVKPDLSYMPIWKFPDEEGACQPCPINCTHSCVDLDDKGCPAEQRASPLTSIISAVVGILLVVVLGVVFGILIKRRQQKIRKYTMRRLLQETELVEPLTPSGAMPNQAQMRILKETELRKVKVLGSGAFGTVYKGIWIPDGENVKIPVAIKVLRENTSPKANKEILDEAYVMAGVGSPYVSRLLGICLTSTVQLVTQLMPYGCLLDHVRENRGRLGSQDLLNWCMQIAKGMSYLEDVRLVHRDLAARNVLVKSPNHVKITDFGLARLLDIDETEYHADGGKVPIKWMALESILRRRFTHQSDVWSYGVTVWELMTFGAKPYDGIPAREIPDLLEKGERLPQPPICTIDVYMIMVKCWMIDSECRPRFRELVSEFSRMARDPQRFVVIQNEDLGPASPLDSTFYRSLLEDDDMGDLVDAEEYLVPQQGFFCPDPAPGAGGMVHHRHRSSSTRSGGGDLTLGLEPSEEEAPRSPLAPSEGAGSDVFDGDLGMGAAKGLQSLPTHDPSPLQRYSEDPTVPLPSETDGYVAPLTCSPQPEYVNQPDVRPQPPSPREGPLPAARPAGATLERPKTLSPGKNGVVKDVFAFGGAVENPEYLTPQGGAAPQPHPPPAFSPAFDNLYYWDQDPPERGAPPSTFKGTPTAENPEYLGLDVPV
T1 sequence (P04626 with tags, fused parts or gaps DUP778-780): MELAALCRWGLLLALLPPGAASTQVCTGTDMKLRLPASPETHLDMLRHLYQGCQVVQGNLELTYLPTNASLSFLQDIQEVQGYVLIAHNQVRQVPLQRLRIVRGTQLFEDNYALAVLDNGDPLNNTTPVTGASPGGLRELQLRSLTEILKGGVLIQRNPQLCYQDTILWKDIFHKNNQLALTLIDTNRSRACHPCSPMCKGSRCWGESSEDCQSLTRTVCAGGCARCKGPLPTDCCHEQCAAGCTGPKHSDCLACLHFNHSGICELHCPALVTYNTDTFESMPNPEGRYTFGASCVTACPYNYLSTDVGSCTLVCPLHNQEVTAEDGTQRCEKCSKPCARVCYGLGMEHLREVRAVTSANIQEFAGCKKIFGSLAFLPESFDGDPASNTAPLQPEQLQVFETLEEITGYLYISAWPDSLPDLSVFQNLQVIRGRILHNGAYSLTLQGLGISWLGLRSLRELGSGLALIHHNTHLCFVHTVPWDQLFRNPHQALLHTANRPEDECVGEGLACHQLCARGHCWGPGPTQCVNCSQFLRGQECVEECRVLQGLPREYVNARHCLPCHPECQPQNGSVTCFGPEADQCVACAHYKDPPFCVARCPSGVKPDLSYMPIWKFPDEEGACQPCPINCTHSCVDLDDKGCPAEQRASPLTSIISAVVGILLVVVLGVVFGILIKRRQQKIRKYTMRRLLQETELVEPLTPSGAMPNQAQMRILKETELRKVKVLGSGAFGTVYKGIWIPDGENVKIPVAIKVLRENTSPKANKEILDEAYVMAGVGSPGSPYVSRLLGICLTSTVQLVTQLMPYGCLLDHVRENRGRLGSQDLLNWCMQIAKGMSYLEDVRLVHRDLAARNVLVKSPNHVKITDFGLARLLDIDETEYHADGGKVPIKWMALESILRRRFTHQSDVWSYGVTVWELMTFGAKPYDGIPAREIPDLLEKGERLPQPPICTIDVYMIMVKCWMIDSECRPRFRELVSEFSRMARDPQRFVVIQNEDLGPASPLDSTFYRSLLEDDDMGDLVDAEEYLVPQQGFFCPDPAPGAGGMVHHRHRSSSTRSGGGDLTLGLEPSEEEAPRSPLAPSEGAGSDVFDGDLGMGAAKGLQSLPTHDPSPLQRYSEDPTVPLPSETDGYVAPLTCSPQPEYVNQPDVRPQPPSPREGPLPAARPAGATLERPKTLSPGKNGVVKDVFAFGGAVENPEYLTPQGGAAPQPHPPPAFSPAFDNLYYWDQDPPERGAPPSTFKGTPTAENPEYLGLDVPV
T5 sequence (P04626 with tags, fused parts or gaps DELINS776-776VC): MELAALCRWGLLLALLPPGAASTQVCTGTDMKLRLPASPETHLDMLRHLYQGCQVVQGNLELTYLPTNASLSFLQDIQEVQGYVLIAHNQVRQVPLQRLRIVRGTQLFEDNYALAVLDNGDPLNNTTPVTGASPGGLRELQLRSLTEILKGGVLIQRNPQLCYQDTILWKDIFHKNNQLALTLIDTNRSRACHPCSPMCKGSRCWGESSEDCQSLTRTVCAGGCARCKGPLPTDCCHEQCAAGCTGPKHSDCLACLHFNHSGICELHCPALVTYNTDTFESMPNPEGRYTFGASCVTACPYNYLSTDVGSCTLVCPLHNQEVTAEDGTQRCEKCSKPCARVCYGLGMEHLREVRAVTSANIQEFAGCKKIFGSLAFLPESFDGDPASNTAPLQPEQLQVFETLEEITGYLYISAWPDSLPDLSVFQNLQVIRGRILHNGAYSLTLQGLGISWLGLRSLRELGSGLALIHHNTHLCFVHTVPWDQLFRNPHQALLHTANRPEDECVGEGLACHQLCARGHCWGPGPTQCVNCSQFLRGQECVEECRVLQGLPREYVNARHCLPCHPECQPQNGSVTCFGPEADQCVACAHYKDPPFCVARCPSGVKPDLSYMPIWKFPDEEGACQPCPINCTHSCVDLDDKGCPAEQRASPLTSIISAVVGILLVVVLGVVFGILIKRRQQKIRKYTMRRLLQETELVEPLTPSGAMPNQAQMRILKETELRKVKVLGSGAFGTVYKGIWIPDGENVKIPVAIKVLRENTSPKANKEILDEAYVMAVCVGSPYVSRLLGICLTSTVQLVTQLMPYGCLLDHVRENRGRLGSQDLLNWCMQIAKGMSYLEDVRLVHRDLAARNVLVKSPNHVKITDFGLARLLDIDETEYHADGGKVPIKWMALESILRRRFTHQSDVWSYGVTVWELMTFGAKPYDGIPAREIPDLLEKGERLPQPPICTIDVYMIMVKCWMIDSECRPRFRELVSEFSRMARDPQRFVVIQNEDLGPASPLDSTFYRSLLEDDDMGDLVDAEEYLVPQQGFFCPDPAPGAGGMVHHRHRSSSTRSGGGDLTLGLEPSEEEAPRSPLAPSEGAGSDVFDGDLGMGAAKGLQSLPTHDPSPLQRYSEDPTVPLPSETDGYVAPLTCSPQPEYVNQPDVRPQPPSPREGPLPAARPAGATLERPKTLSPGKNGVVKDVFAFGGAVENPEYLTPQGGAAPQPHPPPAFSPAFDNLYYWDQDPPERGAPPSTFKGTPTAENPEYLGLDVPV

SMILES	GI50 [1] [nM]	pIC50 [2]	GI50 [3] [nM]	GI50 [4] [nM]	GI50 [5] [nM]	IC50 [6] [nM]	IC50 [7] [nM]	IC50 [8] [nM]	GI50 [9] [nM]	GI50 [10] [nM]	GI50 [11] [nM]	GI50 [12] [nM]	GI50 [13] [nM]
CC#CC(=O)Nc1ccc2ncnc(Nc3ccc(Oc4ccn(C)c(=O)c4)c(C)c3)c2c1 [Compound 3, N-[4-([3-methyl-4-[(1-methyl-2-oxopyridin-4-yl)oxy]phenyl]amino)quinazolin-6-yl]but-2-ynamide]	7.1	6.82	8.1	18	30	4440	13.5	43.3	–	–	–	–	–
CC#CC(=O)Nc1ccc2ncnc(Nc3ccc(Oc4ccc(C)nc4)c(C)c3)c2c1 [Compound 5, N-[4-([3-methyl-4-[(6-methylpyridin-3-yl)oxy]phenyl]amino)quinazolin-6-yl]but-2-ynamide]	1.1	–	8.3	2.3	3.8	–	–	–	44	1.3	6	1.1	2.3
CC#CC(=O)N(C)c1ccc2ncnc(Nc3ccc(Oc4ccn5ncnc5c4)cc3)c2c1 [Compound 8, N-methyl-N-[4-[(4-[[1,2,4]triazolo[1,5-a]pyridin-7-yloxy]phenyl)amino]quinazolin-6-yl]but-2-ynamide]	20.4	7.14	276	31	117	> 10000	16.7	562	1500	34	159	11	52
